Experimental data as given in US12157713B2, “Conjugated oligoelectrolytes as antimicrobial agents” (Nanyang Technological University, priority 2018, dated 2024).
Like-named read-outs stand apart in the source and are kept apart here.

Columns and labels:
E. coli K12 = assay: Epifluorescence imaging of COE-treated E. coli K12; type: cell-based, Escherichia coli; conditions: 32 μg/mL COE; excitation 365 nm, emission 445/50 nm
Procedure: E. coli K-12 was grown, collected and washed according to the procedure described above (in the uptake measurements). COE solutions (in PBS) were added to a PBS suspension of E. coli K12 (OD600=1.0) to achieve final COE concentrations of 32 μg/mL. After incubating for 2 hrs at room temperature under shaking (200 rpm), a drop of suspension was placed on a microscope slide with a cover slip (#1.5, 0.17 mm thickness) and imaged using an inverted widefield epifluorescence microscope with Plan-Apochromat 100x/1.4 phase contrast with oil immersion lens (Carl Zeiss Axio Observer Z1 Inverted Microscope). The fluorescence microscopy images were observed by collecting the fluorescence signal of COEs using the DAPI dye channel (filter set 49 DAPI with excitation peak at 365 nm and emission at 445/50 nm). The bright field images of cells were obtained at exact same location using phase contrast transmitted light technique (Plan-Apochromat 100x/1.4 phase contrast with oil immersion lens). The cell images treated by different COEs were obtained under identical conditions with the matching irradiation frequency and exposure time.
Epi-fluorescence images of the COE-treated E. coli K12 cells were acquired by excitation at λ=365 nm and collecting emission at λ=445/50 nm.

[1] = test system: Escherichia coli FDA control ATCC 25922; assay: Single-dose growth inhibition, Ec; type: cell-based
Procedure: (§1) Inhibition of bacterial growth was determined by measuring the absorbance at 600 nm (OD600), using a Tecan M1000 Pro monochromator plate reader. Growth inhibition was calculated for each well, relative to the reference growths determined from a negative control (media only) and positive control (bacteria without inhibitors) incubated in the same plate. A single dose of 32 μg/mL of COE (final concentration) was used for each test.
(§2) Percentage growth inhibition of an individual sample was calculated based on growth in a reference well determined from negative controls (media only) and positive controls (bacterial/fungal media without inhibitors). Negative inhibition values indicate that the growth rate (or OD600) is higher compared to the reference growth (bacteria/fungi only, set to 0% inhibition). The growth rates for all bacteria and fungi may vary at −/+10%, which were within the reported normal distribution of bacterial/fungal growth. Any significant variations (or outliers/hits) were identified by the modified Z-Score, and the active compounds were selected by a combination of inhibition values and Z-Score.
(§3) A M(i) value of >|2.5| (absolute) would classify the sample as outliers or hits. Active samples were denoted as compounds with inhibition values equal to or above 80% and absolute Z-Score above |2.5| for either replicate (n=2 on different plates). Partial active samples were denoted as compounds with inhibition values from 50% to <80%, or absolute Z-Score below |2.5|.

[2] = test system: Staphylococcus aureus MRSA ATCC 43300; assay: Single-dose growth inhibition, Sa; type: cell-based
Procedure: as §1, §2, §3

[3] = test system: Acinetobacter baumannii ATCC 19606; assay: Single-dose growth inhibition, Ab; type: cell-based
Procedure: as §1, §2, §3

[4] = test system: organism classes (Gram-negative, Gram-positive and fungi); assay: Single-dose screening summary by organism class; type: cell-based; conditions: 32 μg/mL; 0 = no activity
Procedure: as §2
Z-Score analysis was carried out to investigate outliers or hits among the samples. The Z-Score was calculated based on the sample population using a modified Z-Score method which accounts for possible skewed sample population. The modified method uses median and MAD ([…]) instead of average and standard deviation, and a scaling factor (Iglewicz, B. & Hoaglin, D. C. Volume 16: How to Detect and Handle Outliers. The ASQC Basic Reference in Quality Control: Statistical Techniques, 1993). The equation to calculate the modified Z-Score value is as follow: […]
as §3

[5] = test system: Cryptococcus neoformans var. grubii H99; ATCC 208821; assay: Single-dose growth inhibition, Cn; type: cell-based
Procedure: Growth inhibition of C. albicans was determined by measuring the absorbance at 530 nm (OD530), while the growth inhibition of C. neoformans was determined by measuring the difference in absorbance between 600 and 570 nm (OD600-570), after the addition of resazurin (0.001 wt. % final concentration) and incubation at 35° C. for additional 2 hrs. The absorbance was measured using a Biotek Synergy HTX plate reader. The relative growth inhibition was calculated for each well, relative to that determined from a negative control (media only) and positive control (bacteria without inhibitors) on the same plate as references. A single dose of 32 μg/mL of COE (final concentration) was used for each test.
as §2, §3

[6] = DSC of treated unilamellar vesicles; conditions: POPE:POPG 85:15 vesicles
Procedure: POPE (1-palmitoyl-2-oleoyl-phosphatidylethanolamine) and POPG (1-palmitoyl-2-oleoyl-phosphatidylglycerol) were purchased as chloroform stocks from Avanti Polar Lipids. POPE and POPG were mixed to a molar ratio of 85:15 and dried under a gentle stream of nitrogen. The lipid cake obtained was further desiccated for overnight to obtain a thin lipid film. Rehydration of the dried film was carried out by adding 25 mM Tris, 150 mM NaCl, pH 7.5, to a concentration of 4.3 mg/mL, followed by incubation at 45° C. for 2 hrs, under constant stirring using a magnetic stirrer at around 300 rpm. To prepare the unilamellar vesicles, the vesicles suspension was repeatedly extruded through a polycarbonate membrane of 100 nm pores (21 times) at 45° C. The extruded vesicle sample was kept at 4° C. till further use. The vesicle solution was diluted to 0.86 mg/mL with buffer (25 mM Tris, 150 mM NaCl, pH 7.5) or the COE solution (25 mM Tris, 150 mM NaCl, pH 7.5) before the DSC measurements.
Unilamellar vesicles composed of 1-palmitoyl-2-oleoylphosphatidylethanolamine (POPE) and 1-palmitoyl-2-oleoylphosphatidylglycero (POPG) in a molar ratio of 85:15 were prepared in accordance to the general method “Preparation of Small Unilamellar Vesicles” and were used as a generic bacterial model membrane (G. J. Gabriel, et al., Mater. Sci. Eng. R 2007, 57, 28-64).
When subjected to DSC, the main gel-to-liquid-crystal transition peaks broadened after incubation with 8 μg mL^−1 of COE-D8 (FIG. 7a). For COE-D6, a higher concentration (16 μg mL^−1) was needed to change the initial trace (FIG. 7b). […] The perturbation to the cooperative transition of the lamellar phase reflects varying degrees of membrane intercalation. This observation correlates well with solubility and the alkyl chain length (Table 1a). Due to its lower aqueous solubility, COE-D8 is likely to partition more readily into hydrophobic domains of the lipid bilayer, leading to the weakened phase transition observed in the vesicles.

[7] = ATCC25922, read-out: Growth inhibition Ec
[8] = ATCC19606, read-out: Growth inhibition Ab
[9] = ATCC208821, read-out: Growth inhibition Cn
[10] = ATCC25922, 32 μg/mL single dose, n=2, read-out: Growth inhibition Ec
[11] = 32 μg/mL single dose, n=2, read-out: Growth inhibition Sa
[12] = ATCC19606, 32 μg/mL single dose, n=2, read-out: Growth inhibition Ab
[13] = ATCC208821, 32 μg/mL single dose, n=2, read-out: Growth inhibition Cn

With `C[N+](C)(C)CCCCCCCCOc1ccc(/C=C/c2ccc(OCCCCCCCC[N+](C)(C)C)cc2)cc1` [COE-D8] the “Fluorescence intensity of treated E. coli K12 cells relative to background” value (E. coli K12) was “highest fluorescence intensities”, the inhibition at 32 µg/mL [1, 7] was > 80% and the inhibition at 32 µg/mL ([2]; read-out: Growth inhibition Sa) was > 80%. For the same compound, the inhibition at 32 µg/mL [3, 8] was > 80%, the “Activity: number of organism classes the compound has been found active against” value (“Activity: number” for short) [4] was 3 and the inhibition at 32 µg/mL [5, 9] was > 80%. The “Concentration needed to change the gel-to-liquid-crystal transition peak (DSC)” value [6] was 8 µg/mL.
For `CN(C)CC[N+](C)(C)CCCCCCCCOc1ccc(/C=C/c2ccc(OCCCCCCCC[N+](C)(C)CCN(C)C)cc2)cc1` [COE-D82N], the inhibition at 32 µg/mL [1, 10] was > 80%, the inhibition at 32 µg/mL [2, 11] was > 80% and the inhibition at 32 µg/mL [3, 12] was > 80%. The “Activity: number” value [4] was 3 and the inhibition at 32 µg/mL [5, 13] was > 80%.
In the case of `C[N+](C)(C)CCCCOc1ccc(/C=C/c2ccc(OCCCC[N+](C)(C)C)cc2)cc1` [COE-D4], the “Fluorescence intensity of treated E. coli K12 cells relative to background” value (E. coli K12) was “indistinct image”, the inhibition at 32 µg/mL [1, 7] was < 50% and the inhibition at 32 µg/mL ([2]; read-out: Growth inhibition Sa) was > 80%. The inhibition at 32 µg/mL [3, 8] was < 50%, the “Activity: number” value [4] was 2 and the inhibition at 32 µg/mL [5, 9] was > 80%. For the same compound, the “Concentration needed to change the gel-to-liquid-crystal transition peak (DSC)” value [6] was > 32 µg/mL.
With `C[N+](C)(C)CCCCCCOc1ccc(/C=C/c2ccc(OCCCCCC[N+](C)(C)C)cc2)cc1` [COE-D6] the “Fluorescence intensity of treated E. coli K12 cells relative to background” value (E. coli K12) was “intermediate fluorescence intensity”, the inhibition at 32 µg/mL [1, 7] was > 80% and the inhibition at 32 µg/mL ([2]; read-out: Growth inhibition Sa) was > 80%. For the same compound, the inhibition at 32 µg/mL [3, 8] was < 50%, the “Activity: number” value [4] was 3 and the inhibition at 32 µg/mL [5, 9] was > 80%. For the same compound, the “Concentration needed to change the gel-to-liquid-crystal transition peak (DSC)” value [6] was 16 µg/mL.
For `CN(C)CC[N+](C)(C)CCCCCCOc1ccc(/C=C/c2ccc(OCCCCCC[N+](C)(C)CCN(C)C)cc2)cc1` [COE-D62N], the inhibition at 32 µg/mL [1, 10] was > 80%, the inhibition at 32 µg/mL [2, 11] was > 80% and the inhibition at 32 µg/mL [3, 12] was > 80%. The “Activity: number” value [4] was 3 and the inhibition at 32 µg/mL [5, 13] was > 80%.
